Reference: patent publication US20260250257A1, “ANTIBACTERIAL AND SYNERGISTIC ACTIVE COMPOUND AND USE THEREOF” (EAST CHINA UNIVERSITY OF SCIENCE AND TECHNOLOGY, priority 2023, published 2026)

Experiments:
Format in all cases: cell-based
[1] = tested on: ATCC9027 strain (Pseudomonas aeruginosa); experiment: Checkerboard antibacterial synergistic activity test with polymyxin E (FIC); parameters: key: FIC≤0.5 synergy; 0.5–1 additive; 1–2 indifferent; ≥2 antagonism; settings: combined with polymyxin E
Description: (§1) Polymyxin E was diluted in sterile MH broth medium to concentrations of 16, 8, 4, 2, 1, 0.5, 0.25, 0.125, 0.0625, 0.031, and 0.015 μg/ml, and the drug to be tested was diluted to concentrations of 256, 128, 64, 32, 16, 8, and 4 μg/ml. According to the checkerboard method, combinations of the drug to be tested and polymyxin at different concentrations in ascending order were placed into a 96-well plate, and corresponding blank control groups were set up. 50 μl of the drug solution was added to each well, then 100 μl of bacterial liquid was added, and incubated in a 37° C. incubator for 16 hours. […] Calculation and judgment criteria:
(§2) Fractional Inhibitory Concentration (FIC) is calculated as follows: […]
(§3) Judgment criteria: FIC≤0.5: synergistic effect; 0.5<FIC<1: additive effect; 1<FIC<2: indifferent effect; FIC≥2: antagonistic effect.
(§4) In the table: ATCC19606 strain is Acinetobacter baumannii, ATCC25922 strain is Escherichia coli, ATCC13883 strain is Klebsiella pneumoniae, ATCC9027 strain is Pseudomonas aeruginosa. All four strains were purchased from ATCC.

[2] = tested on: ATCC25922 strain (Escherichia coli); experiment: as above; parameters: key: FIC≤0.5 synergy; 0.5–1 additive; 1–2 indifferent; ≥2 antagonism; settings: combined with polymyxin E
Description: as §1, §2, §3, §4

[3] = tested on: ATCC19606 strain (Acinetobacter baumannii); experiment: as above; parameters: key: FIC≤0.5 synergy; 0.5–1 additive; 1–2 indifferent; ≥2 antagonism; settings: combined with polymyxin E
Description: as §1, §2, §3, §4

[4] = tested on: ATCC13883 strain (Klebsiella pneumoniae); experiment: as above; parameters: key: FIC≤0.5 synergy; 0.5–1 additive; 1–2 indifferent; ≥2 antagonism; settings: combined with polymyxin E
Description: as §1, §2, §3, §4

[5] = tested on: ATCC9027 strain (Pseudomonas aeruginosa); experiment: Broth microdilution, antibacterial activity of the compound used alone
From the text: (§5) The broth microdilution method was used to test the antibacterial effects of the compounds of the present invention against various Gram-negative bacterial strains when used alone.

[6] = tested on: ATCC25922 strain (Escherichia coli); experiment: as above
From the text: as §5

[7] = tested on: ATCC19606 strain (Acinetobacter baumannii); experiment: as above
From the text: as §5

[8] = tested on: ATCC13883 strain (Klebsiella pneumoniae); experiment: as above
From the text: as §5

| Compound | Synergistic activity (FIC value) ATCC9027 [1] | Synergistic activity (FIC value) ATCC25922 [2] | Synergistic activity (FIC value) ATCC19606 [3] | Synergistic activity (FIC value) ATCC13883 [4] | Antibacterial activity of the compound of Formula I, ATCC9027 [5] | Antibacterial activity of the compound of Formula I, ATCC25922 [6] | Antibacterial activity of the compound of Formula I, ATCC19606 [7] | Antibacterial activity of the compound of Formula I, ATCC13883 [8] |
| --- | --- | --- | --- | --- | --- | --- | --- | --- |
| NC(N)=Nc1nc(-c2ccccc2[N+](=O)[O-])c[nH]1 [Compound I-20] | 0.56 | 0.5 | 0.75 | 0.63 | 256 µg/mL | 256 µg/mL | 256 µg/mL | 256 µg/mL |
| N#Cc1cccc(-c2csc(N=C(N)N)n2)c1 [Compound I-21] | 1.25 | 0.63 | 0.52 | 0.52 | 64 µg/mL | 128 µg/mL | 256 µg/mL | 128 µg/mL |
| C[Si](C)(C)c1ccc(-c2csc(N=C(N)N)n2)cc1 [Compound I-22] | 0.63 | 0.5 | 0.75 | 0.38 | 256 µg/mL | 256 µg/mL | 256 µg/mL | 256 µg/mL |
| CNc1cc(C)cc(-c2csc(N=C(N)N)n2)c1 [Compound I-23] | 1.25 | 0.63 | 0.52 | 0.52 | 256 µg/mL | 256 µg/mL | 256 µg/mL | 256 µg/mL |
| CC(=O)c1ccc(-c2csc(N=C(N)N)n2)cc1 [Compound I-24] | 1.25 | 1.25 | 0.5 | 1.25 | 256 µg/mL | 256 µg/mL | 256 µg/mL | 256 µg/mL |
| CCOC(=O)c1ccc(-c2c[nH]c(N=C(N)N)n2)cc1 [Compound I-25] | 0.53 | 0.38 | 0.13 | 0.31 | 256 µg/mL | 256 µg/mL | 256 µg/mL | 256 µg/mL |
| CSc1ccccc1-c1csc(N=C(N)N)n1 [Compound I-26] | 1.25 | 0.63 | 0.5 | 1.25 | 256 µg/mL | 256 µg/mL | 256 µg/mL | 256 µg/mL |
| C[S+]([O-])c1cccc(-c2csc(N=C(N)N)n2)c1 (stereo not drawn) [Compound I-27] | 1.25 | 1.25 | 0.51 | 1.25 | 256 µg/mL | 256 µg/mL | 256 µg/mL | 256 µg/mL |
| CS(=O)(=O)Oc1ccc(-c2coc(N=C(N)N)n2)cc1 [Compound I-28] | 0.51 | 1.25 | 1.25 | 1.25 | 256 µg/mL | 256 µg/mL | 256 µg/mL | 256 µg/mL |
| NC(N)=Nc1nc(-c2ccc(OS(N)(=O)=O)cc2)co1 [Compound I-29] | 1.25 | 1.25 | 0.26 | 1.25 | 256 µg/mL | 256 µg/mL | 256 µg/mL | 256 µg/mL |
| CC(=O)N(C)c1cccc(-c2csc(N=C(N)N)n2)c1 [Compound I-30] | 1.25 | 0.52 | 0.13 | 0.19 | 256 µg/mL | 256 µg/mL | 256 µg/mL | 256 µg/mL |
| NC(N)=Nc1nc(-c2cccc(NC(=O)NC3CC3)c2)cs1 [Compound I-31] | 0.5 | 0.56 | 0.25 | 0.31 | 256 µg/mL | 256 µg/mL | 256 µg/mL | 256 µg/mL |
| CS(=O)(=O)Nc1cccc(-c2csc(N=C(N)N)n2)c1 [Compound I-32] | 0.52 | 1.25 | 0.25 | 1.25 | 256 µg/mL | 256 µg/mL | 256 µg/mL | 256 µg/mL |
| NC(N)=Nc1nc(-c2ccc(I)cc2)cs1 [Compound I-33] | 0.63 | 0.5 | 0.28 | 0.25 | 256 µg/mL | 256 µg/mL | 256 µg/mL | 256 µg/mL |
| NC(N)=Nc1nc(-c2cc(I)cc(I)c2)c[se]1 [Compound I-34] | 1.25 | 1.25 | 0.75 | 1.25 | 256 µg/mL | 256 µg/mL | 256 µg/mL | 256 µg/mL |
